Substitutions are numbered along the chain they refer to.
Legend:
Type in all cases: binding
MARK3(48-370) = target: T1, MARK3(48-370) (Homo sapiens, UniProt P27448); assay: SPR, pure MARK3(48-370) WT immobilized by amine coupling, GSK461364A injected
T1 construct: The purified His6-TEV-MARK3(48-370) was immobilized using the same approach as GST-NUAK2(1-628); HRV3C site (C, cleaved yes); AviTag (C, cleaved yes); made in house
T1 sequence (P27448 48-370): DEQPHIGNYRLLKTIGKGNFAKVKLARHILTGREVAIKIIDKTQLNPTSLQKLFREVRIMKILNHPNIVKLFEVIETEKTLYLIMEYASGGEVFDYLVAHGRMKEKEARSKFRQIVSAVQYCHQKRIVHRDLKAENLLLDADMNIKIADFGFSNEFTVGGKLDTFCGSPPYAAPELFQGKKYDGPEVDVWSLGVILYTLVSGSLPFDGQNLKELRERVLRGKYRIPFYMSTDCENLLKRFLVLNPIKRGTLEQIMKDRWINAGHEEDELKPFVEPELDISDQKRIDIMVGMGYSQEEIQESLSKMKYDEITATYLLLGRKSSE
Experimental: (§1) The interaction analysis cycles consisted of 140 s of sample injection followed by 350 to 600 s of running buffer flow. The running buffer was composed of 20 mM HEPES pH 7.4, 100 mM NaCl, 5 mM MgCl2, 1 mM EGTA, 1 mM DTT, 0.05% Tween-20, and 2% DMSO, and the experiment was performed at 15 °C.
All sensorgrams were processed by first subtracting the binding response recorded from the control surface (reference spot, where only the avidin protein is immobilized), followed by subtraction of the buffer blank injection from the reaction spot. All datasets were fitted to a simple 1:1 Langmuir interaction model to determine the kinetic rate constants, and the interaction affinity was additionally calculated at a steady state when applicable. In cases where small molecules were present during the assay, a DMSO solvent correction (1–3%) was applied to account for variations in bulk signal and to achieve high-quality data. The experiments with immobilized purified proteins were performed on a Biacore 4000 (Cytiva, Uppsala, Sweden), and the interaction was evaluated using the provided Biacore 4000 evaluation software, while the experiments with soluble cell lysates on a Biacore T200 (Cytiva, Uppsala, Sweden) used the provided Biacore T200 evaluation software. All SPR experiments were performed in duplicate.

MARK3(48-370) Mutant 2 = target: T2, MARK3(48-370) Mutant 2 (Homo sapiens, UniProt P27448, E139D/I62L/L128I/L130I/T204H/V116I/V205Q); assay: SPR Extract2Chip, cellular biotinylated MARK3 Mutant 2, GSK461364A injected; details: 15 °C
T2 construct: made in house; host or cells: E. coli Rosetta 2, co-expressed with BirA; soluble lysate used without purification
T2 sequence (P27448 48-370 I62L/V116I/L128I/L130I/E139D/T204H/V205Q): T1 sequence (P27448 48-370) with I15L, V69I, L81I, L83I, E92D, T157H, V158Q
Experimental: (§2) The cellular biotinylation of MARK3(48-370) kinase domain mutants followed the same approach as described for CypD. The 6 different mutants were expressed in Rosetta^TM 2 in PB media, and induced with 100 µM IPTG overnight at 18 °C.
(§3) The cellular biotinylated MARK3 NUAK2-like mutants were immobilized using the approach described in Section 2.5.2. The soluble cell lysates were diluted to a final concentration of 200 µg/mL, then injected over the neutravidin surfaces for 200 or 1400 s in order to reach 1000 to 2300 RU.
as §1
(§4) All sensorgrams were processed by first subtracting the binding response recorded from the control surface (reference spot, where only the avidin protein is immobilized), followed by subtraction of the buffer blank injection from the reaction spot. All datasets were fitted to a simple 1:1 Langmuir interaction model to determine the kinetic rate constants, and the interaction affinity was additionally calculated at a steady state when applicable. […]

MARK3(48-370) Mutant 6 = target: T3, MARK3(48-370) Mutant 6 (Homo sapiens, UniProt P27448, A68G/E139D/F199L/F67Y/G137R/I62L/L128I/L130I/L72K/N66T/T204H/V116I/V205Q); assay: SPR Extract2Chip, cellular biotinylated MARK3 Mutant 6, GSK461364A injected; details: 15 °C
T3 construct: made in house; host or cells: E. coli Rosetta 2, co-expressed with BirA; soluble lysate used without purification
T3 sequence (P27448 48-370 I62L/N66T/F67Y/A68G/L72K/V116I/L128I/L130I/G137R/E139D/F199L/T204H/V205Q): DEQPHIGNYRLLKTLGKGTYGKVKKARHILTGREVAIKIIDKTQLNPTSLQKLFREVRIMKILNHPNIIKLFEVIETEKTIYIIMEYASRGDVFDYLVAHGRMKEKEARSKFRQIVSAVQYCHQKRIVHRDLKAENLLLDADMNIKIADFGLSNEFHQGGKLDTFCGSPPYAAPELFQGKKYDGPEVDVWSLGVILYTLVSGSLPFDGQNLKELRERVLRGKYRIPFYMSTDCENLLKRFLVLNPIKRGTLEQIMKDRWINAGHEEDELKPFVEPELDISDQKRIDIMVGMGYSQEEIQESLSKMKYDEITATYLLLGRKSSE
Experimental: as §2, §3, §1, §4

Binding behavior (MARK3(48-370)): transient binding behavior | kd ± SD (MARK3(48-370) Mutant 2): 0.081 ± 0.015 s⁻¹ | kd ± SD (MARK3(48-370) Mutant 6): 0.021 ± 0.0012 s⁻¹
SMILES: C[C@@H](Oc1cc(-n2cnc3ccc(CN4CCN(C)CC4)cc32)sc1C(N)=O)c1ccccc1C(F)(F)F [GSK461364A]

— paper PMC10605449 (Biosensors, 2023)
